According to patent publication US20040259835A1, “Stabilized brivudine topical formulations” (priority 2001, published 2004):

System: varicella-zoster virus (VZV)
Assay: not given
Settings: state of the art; cited from earlier work

Compound	effectiveness against VZV (in words)
O=c1[nH]c(=O)n([C@H]2C[C@H](O)[C@@H](CO)O2)cc1/C=C/Br [brivudine, (E)-5-(2-bromovinyl)-2′-deoxyuridine]	very effective

System: not given
Assay: not given
Settings: UV light; isomerization to Z-BVDU and other decomposition products; state of the art; cited from earlier work

Compound	light stability of brivudine (in words)
O=c1[nH]c(=O)n([C@H]2C[C@H](O)[C@@H](CO)O2)cc1/C=C/Br [brivudine, (E)-5-(2-bromovinyl)-2′-deoxyuridine]	light-instability

System: not listed separately
Assay: Photostabilization of brivudine by admixed substances (formulation not specified)
Format: physicochemical
Settings: not given
Text: DE 3136282 proposes to protect light-unstable drugs using substances with a similar absorption profile. The protective effect is supposed to depend on the similarity between the absorption spectra of the stabilizer and of the drug, that is, the larger is the overlapping between the two absorption spectra, the better is the photo-stabilization. According to DE3136282, the ICH (International Conference on Harmonisation) guideline CPMP/ICH/279/95 was followed to determine brivudine degradation. Several substances, including pharmaceutical excipients, colorants or photostable drugs were tested in admixture with brivudine.

Compound	photostabilization of brivudine (in words)	degradation of brivudine (in words)
COc1ccc(C(=O)c2ccccc2O)c(O)c1 [Dioxybenzone]	effectively stabilize	
COc1ccc(C(=O)c2ccccc2)c(O)c1 [Oxybenzone]	effectively stabilize	
O=C(c1ccc(O)cc1O)c1ccc(O)cc1O [2,2′,4,4′-tetrahydroxybenzophenon, 2,2′,4,4′-tetrahydroxy-benzophenone]	effectively stabilize	
CCCCC(CC)COC(=O)c1ccc(N(C)C)cc1 (centres unmarked) [Padimate O]	No effects	
CCCCC(CC)COC(=O)C(C#N)=C(c1ccccc1)c1ccccc1 (centres unmarked) [octocrylene]	stabilize brivudine, although to a lesser extent	
CCCCC(CC)COC(=O)C=Cc1ccc(OC)cc1 (centres unmarked) [octyl-methoxy-cinnamate]	stabilize brivudine, although to a lesser extent	
COc1cc(O)c(C(=O)c2cc(S(=O)(=O)[O-])c(OC)cc2O)cc1S(=O)(=O)[O-].[Na+].[Na+] [2,2′-dihydroxy-4,4′-dimethoxybenzophenone-5,5′-disodium sulfonate]	effectively stabilize	
O=C(c1ccccc1)c1ccc(O)cc1O [2,4-dihydroxy benzophenone]	effectively stabilize	
Cc1ccc(/C=C2/C(=O)C3(C)CCC2C3(C)C)cc1 (centres unmarked) [methyl-benzylidene-camphor]	stabilize brivudine, although to a lesser extent	
COc1ccc(C(=O)CC(=O)c2ccc(C(C)(C)C)cc2)cc1 [avobenzone]	stabilize brivudine, although to a lesser extent	

Second part, led by results:

photostabilization of brivudine (in words)	Compound	degradation of brivudine (in words)
remarkable photostabilization	CC1=C(/C=C/C(C)=C/C=C/C(C)=C/C=C/C=C(C)/C=C/C=C(C)/C=C/C2=C(C)CCCC2(C)C)C(C)(C)CCC1 [beta carotene, beta-carotene]	
No effects	CC1CC(OC(=O)c2ccccc2O)CC(C)(C)C1 (centres unmarked) [homosalate]	
best recovery rates	O=S(=O)([O-])c1ccc(N=Nc2ccc(O)cc2O)cc1.[Na+] [Tropaeolin 0, 2,4-dihydroxyazobenzol-4′-sulfonic acid sodium salt]	nearly no degradation of brivudine was detectable
did not show any effect	O=C(O)CCCCC1CCSS1 (stereo not drawn) [alpha-liponic acid]	
No effects	CCCCC(CC)COC(=O)c1ccc(Nc2nc(Nc3ccc(C(=O)OCC(CC)CCCC)cc3)nc(Nc3ccc(C(=O)OCC(CC)CCCC)cc3)n2)cc1 (centres unmarked) [Uvinul® T150, 2,4,6-trianilino-p-(carbo-2′-ethyl-hexyl-1′-oxi)-1,3,5-triazin]	
effectively stabilize	COc1cc(O)c(C(=O)c2ccccc2)cc1S(=O)(=O)O [Sulisobenzone]	
did not show any effect	N[C@@H](CS)C(=O)O [cystein]	

Same assay, conditions: substance in admixture with brivudine, UV irradiation

Compound	photostabilization of brivudine (in words)
4-Bis(polyethoxy)paraamino-benzoicacid-polyethoxy-ethylester [Uvinul ® P25]	No effects
COc1cc(C=O)ccc1O [Vanillin]	did not satisfactorily stabilize brivudine
Type I: 2-(1,3-Dioxo-2-indanyl)-chinolin-disulfonic acid, Disodium salt Type II: 2-(1,3-Dioxo-2-indanyl)-methylchinolin-disulfonic acid, Disodium salt [Quinoline Yellow]	did not satisfactorily stabilize brivudine

Same assay, conditions: versus controls

protection of brivudine from decomposition over the controls	Compound
more than 30%	O=S(=O)([O-])c1ccc2c(N=Nc3ccc(S(=O)(=O)[O-])c4ccccc34)c(O)c(S(=O)(=O)[O-])cc2c1.[Na+].[Na+].[Na+] [Food red 9, 3-Hydroxy-4-(4-sulfonato-1-naphtylazo)-naphthalin-2,7-disulfonic acid, Trisodium salt]

Same assay, conditions: with respect to brivudine alone

Compound	fold increase of brivudine photostabilization / recovery
7-Hydroxy-8-(4-sulfonato-1-naphthylazo)-naphthalin-1,3-disulfonic acid, trisodium salt [Cochineal Red A]	more then threefold

System: herpes simplex virus type 1 (HSV-1)
Assay: not given
Settings: state of the art; cited from earlier work

Compound	effectiveness against HSV-1 (in words)
O=c1[nH]c(=O)n([C@H]2C[C@H](O)[C@@H](CO)O2)cc1/C=C/Br [brivudine, (E)-5-(2-bromovinyl)-2′-deoxyuridine]	very effective
